Laboratory results from US20230115176A1 (Ra Pharmaceuticals, Inc., priority 2019, published 2023).
pIC50: −log10 of the molar value. Values after ≈ are worked out from the molar mass of the structure shown.

Columns and labels:
Human C5 [1] = target: T1, Human C5 (Homo sapiens, UniProt P01031); assay: Red blood cell (RBC) hemolysis assay, luminescent (Example 28, Table 32); format: cell-based; details: sheep EA cells, 1.5% C5-depleted human serum, 0.5 nM human C5, 1 hour at 37° C., luminescence (Table 32)
T1 construct: purchased Complement Technology

Human C5 [2] = target: T1, Human C5; assay: Red blood cell (RBC) hemolysis assay, luminescent (Example 13, Table 22); format: cell-based; details: sheep EA cells, […] C5-depleted human serum, 0.5 nM human C5, 1 hour 37° C., luminescence
Source text: Compound CU0136 is a racemic mixture of Compound CU0186 and CU0187. Numbers in parenthesis following compound numbers indicate alternate enantiomers (as distinguished by retention time during chromatographical separation).

[3] = Kinetic solubility in PBS pH 7.4, HPLC-UV (Example 21, Table 27); format: physicochemical; details: phosphate buffered saline, aqueous buffer, kinetic from dmso stock, 0.5 M PBS, shaken minimum 24 h at approximately 25° C., HPLC-UV 270 nm
Experimental: Compounds were analyzed for kinetic solubility values using a standard kinetic solubility assay format. First, test compounds were dissolved in DMSO (Aldrich Chemical Co., Milwaukee, Wis., USA) at a concentration of 0.010 mol/L and used to prepare standard calibrators in DMSO solution. 500.0 μM, 250.0 μM, 125.0 μM, 62.5 μM, 31.2 μM, and 15.6 μM standards were prepared in a Greiner UV-Star clear V-bottom 96-well plate (Greiner-Bio One, Germany) for generating a standard curve. Using Alfa Aesar's Sodium phosphate, 0.2 M buffer solution, pH 7.4 (Alfa Aesar, Haverhill, Mass., USA), aqueous phosphate buffered saline (PBS) was prepared by diluting with Milli-Q water for a final concentration of 0.05 M. The pH of the solution was adjusted to 7.4±0.1 using 0.1 M hydrochloric acid (Fisher Scientific Waltham, Mass., USA) or 0.1 M aqueous sodium hydroxide (Fisher Scientific Waltham, Mass., USA).
10 μL of 0.010 mol/L DMSO test compound stock solutions were pipetted to separate 1.5 mL centrifuge tubes in triplicate. To these tubes, 190 μl of 0.05 M PBS was added. Each tube was gently vortexed for 5 sec. The tubes were shaken for a minimum of 24 h at approximately 25° C. After shaking, the solutions were transferred to 0.5 mL centrifuge filter tubes (MilliporeSigma, Burlington, Mass., USA) and centrifuged at 10,000 rpm for 5 min. After centrifugation, supernatants were collected and used for compound concentration analysis.
Compound concentrations in each solution were determined using high pressure liquid chromatography (HPLC) with ultraviolet (UV) detection and comparison with external standards. For HPLC, a Waters Acquity CSH Phenyl-Hexyl column (2.1 mm×50 mm, 1.7 μm) was used together with a generic gradient method on a Waters H-class system equipped with a diode array detector: Solvent A=0.1% formic acid in water, Solvent B=0.1% formic acid in acetonitrile (MilliporeSigma, Burlington, Mass., USA), flow=0.65 mL/min, (t=0 min: 95% A-5% B, t=4.75 min: 0% A-100% B, t=4.85 min: 0% A-100% B, t=4.86 min: 95% A-5% B, t=5 min: 95% A-5% B). UV quantifications were performed at 270 nm. Solution concentrations were calculated using Microsoft Excel.

purified human C5 = purified human C5 (Homo sapiens, UniProt P01031); assay: Red blood cell (RBC) hemolysis assay, optical, absorbance 412 nm (Example 10, Table 19); format: cell-based; details: antibody-sensitized sheep erythrocytes, […] human C5 depleted sera, 0.5 nM purified human C5, absorbance 412 nm; read-out: RBC Hemolysis IC50
purified human C5, sequence (P01031 19-1676): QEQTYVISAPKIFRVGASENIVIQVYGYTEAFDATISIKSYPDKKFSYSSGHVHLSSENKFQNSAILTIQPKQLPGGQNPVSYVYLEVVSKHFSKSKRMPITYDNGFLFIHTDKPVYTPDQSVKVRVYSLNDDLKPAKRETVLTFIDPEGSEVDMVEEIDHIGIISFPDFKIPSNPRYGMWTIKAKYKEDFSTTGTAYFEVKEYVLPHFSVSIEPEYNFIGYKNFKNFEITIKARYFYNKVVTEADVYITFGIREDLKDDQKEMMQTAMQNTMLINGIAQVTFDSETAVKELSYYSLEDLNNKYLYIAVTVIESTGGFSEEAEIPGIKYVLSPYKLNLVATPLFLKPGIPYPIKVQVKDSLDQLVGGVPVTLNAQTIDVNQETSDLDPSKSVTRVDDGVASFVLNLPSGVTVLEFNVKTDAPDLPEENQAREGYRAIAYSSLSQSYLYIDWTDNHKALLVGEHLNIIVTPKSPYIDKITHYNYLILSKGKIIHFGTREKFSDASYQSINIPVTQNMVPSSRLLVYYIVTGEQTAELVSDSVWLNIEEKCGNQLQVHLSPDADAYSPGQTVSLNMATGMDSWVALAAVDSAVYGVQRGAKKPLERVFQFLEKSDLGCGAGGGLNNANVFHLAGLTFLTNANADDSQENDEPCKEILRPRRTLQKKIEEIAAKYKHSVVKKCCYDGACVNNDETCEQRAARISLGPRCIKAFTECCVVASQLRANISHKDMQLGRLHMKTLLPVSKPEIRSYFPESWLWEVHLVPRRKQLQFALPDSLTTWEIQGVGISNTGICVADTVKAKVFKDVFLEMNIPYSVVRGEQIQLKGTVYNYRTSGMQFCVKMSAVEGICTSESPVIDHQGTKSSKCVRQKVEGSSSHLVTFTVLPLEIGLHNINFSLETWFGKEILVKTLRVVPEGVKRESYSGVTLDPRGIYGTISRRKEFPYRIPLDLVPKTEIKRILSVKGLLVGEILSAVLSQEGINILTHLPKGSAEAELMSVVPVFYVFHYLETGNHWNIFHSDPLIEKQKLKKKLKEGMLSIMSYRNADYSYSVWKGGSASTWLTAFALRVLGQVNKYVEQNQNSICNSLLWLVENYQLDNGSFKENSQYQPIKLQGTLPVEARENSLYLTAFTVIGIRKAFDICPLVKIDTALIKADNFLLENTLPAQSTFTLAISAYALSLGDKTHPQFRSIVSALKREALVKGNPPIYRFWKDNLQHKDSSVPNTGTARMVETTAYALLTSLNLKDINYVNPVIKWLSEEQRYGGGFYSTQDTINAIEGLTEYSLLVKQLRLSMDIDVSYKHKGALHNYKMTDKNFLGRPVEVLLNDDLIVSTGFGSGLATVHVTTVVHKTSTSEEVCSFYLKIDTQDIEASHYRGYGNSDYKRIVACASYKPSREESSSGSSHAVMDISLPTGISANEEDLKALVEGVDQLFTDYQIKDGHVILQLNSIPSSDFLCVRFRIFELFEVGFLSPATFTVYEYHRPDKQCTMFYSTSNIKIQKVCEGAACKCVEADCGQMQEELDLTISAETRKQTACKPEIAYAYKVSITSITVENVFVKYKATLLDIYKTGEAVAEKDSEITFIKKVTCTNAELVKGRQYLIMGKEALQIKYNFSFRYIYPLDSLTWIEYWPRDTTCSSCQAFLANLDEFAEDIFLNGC

T1 sequence (P01031 19-1676): as above

Row | SMILES | pIC50 (Human C5 [1]) | pIC50 (Human C5 [2]) | solubility kinetic [3] [µM] | pIC50 (purified human C5)
1 | CCCCCOc1cc(N2C[C@H](C)CN(Cc3ccc(CC(=O)N4CCOCC4)cc3OC)C2=O)ccc1OC [SC0193] | 8.08 | – | – | –
2 | CCCCCOc1cc(N2C[C@H](C(=O)NC)CN(Cc3cc(F)ccc3OC)C2=O)ccc1OC [SC0217] | 7.60 | – | – | –
3 | CCCCCOc1cc(N2CC[C@H](C)N(Cc3ccnc4c3c(Cl)cn4CC(=O)N3CC[C@H](N(C)C)C3)C2=O)ccc1OC [SC0129] | 8.77 | – | – | –
4 | COc1cc(CC(=O)N[C@@H]2CCNC2)ccc1CN1C(=O)N(c2ccc(OC)c(OCCCC3CC3)c2)CC[C@@H]1C [SC0166] | 8.51 | – | – | –
5 | COc1cc(CC(=O)N(C)[C@@H]2CCN(C(=O)OC(C)(C)C)C2)ccc1CN1C(=O)N(c2ccc(OC)c(OCCCC3CC3)c2)CC[C@@H]1C [SC0202] | 8.00 | – | – | –
6 | COc1cc(CC(=O)N(C)C)ccc1CN1CCCN(c2ccc(OC)c(OCC[C@@H]3C[C@@H]4CC[C@H]3C4)c2)C1=O [CU0213] | – | 7.69 | 17 (≈ 9.35 µg/mL) | –
7 | COc1ccc(NC(=O)NCc2ccnc3c2ccn3CC(=O)N2CCOCC2)cc1OCCCC(C)C [Compound C5INH-0508] | – | – | – | 7.14
8 | CCCCCOc1cc(N2CCCN(Cc3ccnc4c3ccn4CC(=O)N3CCO[C@@H](COC)C3)C2=O)ccc1OC [CU0260] | – | 7.60 | 436 (≈ 259 µg/mL) | –
9 | COc1ccc(N)cc1CNC(=O)Nc1ccc(OC)c(OCCCC(C)C)c1 [Compound C5INH-0321] | – | – | – | 7.21
10 | COc1cc(CC(=O)N(C)C)ccc1CN1CCCN(c2ccc(OC)c(OCCC[C@H]3C[C@H]3C)c2)C1=O (racemic) [CU0226] | – | 7.80 | 286 (≈ 150 µg/mL) | –
11 | CCCCCOc1cc(N2CCCN(Cc3ccnc4c3ccn4CC(=O)NC3CCN(C(C)C)CC3)C2=O)ccc1OC [CU0255] | – | 7.71 | 436 (≈ 264 µg/mL) | –
12 | CCCCCOc1cc(N2CCCN(Cc3ccc(CC(N)=O)cc3OC)C2=O)ccc1OC [CU0188] | – | 7.70 | 73 (≈ 34.3 µg/mL) | –
13 | CCCCCOc1cc(N2CCCN(Cc3ccc(CCN4CCN(C)CC4)cc3OC)C2=O)ccc1OC [CU0178] | – | 7.57 | 423 (≈ 228 µg/mL) | –
14 | COc1ccc(NC(=O)NC(C(=O)NO)c2cccc(OC)c2O)cc1OCCCC(C)C (stereo not drawn) [Compound C5INH-0512] | – | – | – | 7.38
15 | COc1ccc(NC(=O)NCc2c(F)cnc3c2ccn3CC(=O)N(C)C)cc1OCCCC(C)C [Compound C5INH-0515] | – | – | – | 5.80
16 | COc1cc(CC(=O)N2CCOC(CN(C)C)C2)ccc1CN1CCCN(c2ccc(OC)c(OCCCC(C)(F)F)c2)C1=O (stereo not drawn) [CU0170] | – | 7.70 | 435 (≈ 275 µg/mL) | –
17 | CCCCCOc1cc(N2CCCN(Cc3ccc(CCN4CCCCC4=O)cc3OC)C2=O)ccc1OC [CU0190] | – | 7.38 | 139 (≈ 74.7 µg/mL) | –
18 | CCCCCOc1cc(N2CCCN(Cc3ccnc4c3ccn4CC(=O)N(C)C3CCN(CC)C3)C2=O)ccc1OC (stereo not drawn) [CU0257] | – | 7.80 | > 500 | –
19 | CNC(=O)c1cccc(CNC(=O)Nc2ccc(OC)c(OCCCC(C)C)c2)c1 [Compound C5INH-0319] | – | – | – | 6.10
20 | COc1ccc(NC(=O)NCc2cccc3cn[nH]c23)cc1OCCCC(C)C [Compound C5INH-0448] | – | – | – | 5.37
21 | CCCCCOc1cc(N2CCCN(Cc3ccc(CC(=O)N4CCO[C@@H](CN(C)C)C4)cc3OC)C2=O)ccc1OC (stereo in doubt) [CU0186] | – | 7.73 | 348 (≈ 208 µg/mL) | –
22 | CCCCCOc1cc(N2CCCN(Cc3cccc4c3ccn4CC(=O)N3CCN(C)C(=O)C3)C2=O)ccc1OC [CU0246] | – | 7.97 | 287 (≈ 165 µg/mL) | –
23 | COc1ccc(F)cc1CN1CCCN(c2ccc(OC)c(OCCC3CCC3)c2)C1=O [CU0154] | – | 7.65 | 58 (≈ 25.7 µg/mL) | –
24 | COc1ccc(NC(=O)NCc2ccnc3c2ccn3CCC(=O)O)cc1OCCCC(C)C [Compound C5INH-0399] | – | – | – | 6.21
25 | CCCCCOc1cc(N2CCCN(Cc3cccc4c3ccn4CC(=O)N3CCN=C(N(C)C)C3)C2=O)ccc1OC [CU0239] | – | 7.95 | 333 (≈ 196 µg/mL) | –
26 | COc1ccc(NC(=O)NCc2ccc(CN3CCN(C)CC3)cc2)cc1OCCCC(C)C [Compound C5INH-0324] | – | – | – | 6.26

Row | SMILES | pIC50 (Human C5 [1]) | pIC50 (Human C5 [2]) | solubility kinetic [3] [µM] | pIC50 (purified human C5)
27 | CCCCCOc1cc(N2CCCN(Cc3cccc4c3ccn4CC(=O)NC3CCNC(=O)C3)C2=O)ccc1OC (stereo not drawn) [CU0244] | – | 8.17 | 200 (≈ 115 µg/mL) | –
28 | COc1ccc(NC(=O)N2CCCC2c2ccccc2OC)cc1OCCCC(C)C (stereo not drawn) [Compound C5INH-0371] | – | – | – | 7.17
29 | COc1ccc(NC(=O)Nc2ccc3cc[nH]c3c2)cc1OCCCC(C)C [Compound C5INH-0513] | – | – | – | 5.48
30 | COc1ccc(NC(=O)NCc2ccnc3c2ccn3CC(=O)N2CCCCC2)cc1OCCCC(C)C [Compound C5INH-0507] | – | – | – | 6.73
31 | COc1ccc(OCCCC(C)C)cc1NC(=O)NC(CO)c1ccccc1 (stereo not drawn) [Compound C5INH-0487] | – | – | – | 6.08
32 | COc1cc(CNC(=O)c2ccccc2)c(NC(=O)NCc2ccnc3[nH]ccc23)cc1OCCCC(C)C [Compound C5INH-0510] | – | – | – | 6.93
33 | CCCCCOc1cc(N2CCCN(Cc3ccc(Cc4nnnn4C)cc3OC)C2=O)ccc1OC [CU0211] | – | 7.81 | 112 (≈ 57 µg/mL) | –
34 | COc1cc(CNC(=O)C(C)(C)C)c(NC(=O)NCc2ccnc3[nH]ccc23)cc1OCCCC(C)C [Compound C5INH-0509] | – | – | – | 6.54
35 | COc1ccc(NC(=O)NCc2ccnc(NCCCN(C)C)c2OC)cc1OCCCC(C)C [Compound C5INH-0532] | – | – | – | 6.66
36 | CCC(F)(F)CCOc1cc(N2CCCN(Cc3ccc(CC(=O)NC4CCN(C(C)C)CC4)cc3OC)C2=O)ccc1OC [CU0207] | – | 7.88 | 415 (≈ 262 µg/mL) | –
37 | CCC(F)(F)CCOc1cc(N2CCCN(Cc3ccc(CC(=O)N4CCOC(CN(C)C)C4)cc3OC)C2=O)ccc1OC (stereo not drawn) [CU0175] | – | 7.55 | 486 (≈ 308 µg/mL) | –
38 | CCCCCOc1cc(N2CCCN(Cc3cccc4c3ccn4CC(=O)N3CCOC(CN(C)C)C3)C2=O)ccc1OC (stereo not drawn) [CU0247] | – | 8.01 | 376 (≈ 228 µg/mL) | –
39 | CCCCCOc1cc(N2CCCN(Cc3ccc(CC(=O)N4CCN=C(N(C)C)C4)cc3OC)C2=O)ccc1OC [CU0173] | – | 7.94 | 368 (≈ 213 µg/mL) | –
40 | CCCCCOc1cc(N2CCCN(Cc3ccc(Cc4nnn(C)n4)cc3OC)C2=O)ccc1OC [CU0212] | – | 7.63 | 52 (≈ 26.4 µg/mL) | –
41 | COc1cc(CC(=O)N(C)C)ccc1CN1CCCN(c2ccc(OC)c(OCCCC(F)(F)C(F)(F)F)c2)C1=O [CU0214] | – | 7.68 | 209 (≈ 123 µg/mL) | –
42 | COc1ccc(NC(=O)CN2CCOCC2)cc1CNC(=O)Nc1ccc(OC)c(OCCCC(C)C)c1 [Compound C5INH-0533] | – | – | – | 6.17
43 | COc1cc(CC(=O)NC2CCN(C(C)C)CC2)ccc1CN1CCCN(c2ccc(OC)c(OCCCC(C)(F)F)c2)C1=O [CU0141] | – | 7.88 | 366 (≈ 231 µg/mL) | –
44 | CCCCCOc1cc(N2CCCN(Cc3ccc(CC(=O)N4CCO[C@@H](COC)C4)cc3OC)C2=O)ccc1OC [CU0224] | – | 7.81 | 466 (≈ 272 µg/mL) | –
45 | CCCCCOc1cc(N2CCCN(Cc3ccnc4c3c(C)cn4CC(=O)N(C)C)C2=O)ccc1OC [CU0258] | – | 8.12 | 462 (≈ 241 µg/mL) | –
46 | COc1ccc(NC(=O)NCc2ccnc3c2ccn3CCN2CCOCC2)cc1OCCCC(C)C [Compound C5INH-0370] | – | – | – | 6.68
47 | COc1ccc(NC(=O)NCc2cccc3ccsc23)cc1OCCCC(C)C [Compound C5INH-0294] | – | – | – | 6.46
48 | CCCCCOc1cc(N2CCCN(Cc3ccc(CNC(=O)c4cocn4)cc3OC)C2=O)ccc1OC [CU0161] | – | 7.64 | 77 (≈ 41.3 µg/mL) | –
49 | COc1ccc(NC(=O)NCc2cccc3c2OCCO3)cc1OCCCC(C)C [Compound C5INH-0543] | – | – | – | 6.43
50 | COc1ccc(NC(=O)NCc2ccnc3c2ccn3Cc2ccncc2)cc1OCCCC(C)C [Compound C5INH-0540] | – | – | – | 6.36
51 | CCCCCOc1cc(N2CCCN(Cc3ccc(CN)cc3OC)C2=O)ccc1OC [CU0201] | – | 8.13 | 389 (≈ 172 µg/mL) | –
52 | COc1ccc(NC(=O)NCc2ccnc3c2ccn3CCN2CCCS2(=O)=O)cc1OCCCC(C)C [Compound C5INH-0411] | – | – | – | 6.21
